Data as given in ChEMBL document CHEMBL4330077, “1,1-Diheterocyclic Ethylenes Derived from Quinaldine and Carbazole as New Tubulin-Polymerization Inhibitors: Synthesis, Metabolism, and Biological Evaluation” (J Med Chem, 2019).
In brackets after ≈: the same amount, converted by molar mass. One block for each molecule: values may come before it. Activity calls are given as the source filed them. The rule behind the calls is not given here.

Assays:
Cytochrome P450 [1] = assay: Drug level in human liver microsomes treated with isocombratestatin-A4 assessed as CYP450-mediated compound metabolism at 100 uM after 6 hrs in presence of NADPH generating system by HPLC-UV-MS analysis; format: ADME
[2] = Drug level in rat liver microsomes treated with isocombratestatin-A4 assessed as CYP450-mediated compound metabolism at 100 uM after 6 hrs in presence of NADPH generating system by HPLC-UV-MS analysis; format: ADME
[3] = Inhibition of sheep brain tubulin polymerization by DAPI-fluorescence based fluorimetry; set-up: species or system Ovis aries
U-87 MG = assay: Antiproliferative activity against human U87MG cells after 72 hrs by MTS assay; format: functional, cell-based, U-87MG ATCC
Cytochrome P450 [4] = assay: Drug metabolism in human liver microsomes assessed as cytochrome P450-mediated 4-(1-(3-hydroxy-4-methoxyphenyl)vinyl)-2,6-dimethoxyphenol metabolite formation at 100 uM after 6 hrs in presence of NADPH generating system by HPLC-UV-MS analysis; format: ADME
[5] = Drug metabolism in rat liver microsomes assessed as cytochrome P450-mediated 4-(1-(3-hydroxy-4-methoxyphenyl)vinyl)-2,6-dimethoxyphenol metabolite formation at 100 uM after 6 hrs in presence of NADPH generating system by HPLC-UV-MS analysis; format: ADME
Cytochrome P450 [6] = assay: Drug metabolism in human liver microsomes assessed as cytochrome P450-mediated 2-methoxy-5-(1-(3,4,5-trimethoxyphenyl)vinyl)cyclohexa-2,5-diene-1,4-dione metabolite formation at 100 uM after 6 hrs in presence of NADPH generating system by HPLC-UV-MS analysis; format: ADME
[7] = Drug metabolism in rat liver microsomes assessed as cytochrome P450-mediated 2-methoxy-5-(1-(3,4,5-trimethoxyphenyl)vinyl)cyclohexa-2,5-diene-1,4-dione metabolite formation at 100 uM after 6 hrs in presence of NADPH generating system by HPLC-UV-MS analysis; format: ADME
HCT-116 [8] = assay: cells; conditions: Homo sapiens, HCT-116, 72 h
Description: Antiproliferative activity against human HCT116 cells after 72 hrs by MTS assay

A549 [9] = assay: cells; conditions: Homo sapiens, A549, 72 h
Description: Antiproliferative activity against human A549 cells after 72 hrs by MTS assay

K562 = assay: cells; conditions: Homo sapiens, K562, 72 h
HUVEC [10] = assay: cells; conditions: Homo sapiens, 72 h
Description: Antiproliferative activity against HUVEC after 72 hrs by MTS assay

HT-29 = assay: cells; conditions: Homo sapiens, HT-29, 72 h
Description: Antiproliferative activity against human HT-29 cells after 72 hrs by MTS assay

K-562R [11] = assay: Antiproliferative activity against human K562R cells after 72 hrs by MTS assay; format: functional, cell-based
HCT-116 [12] = assay: Induction of cell cycle arrest in human HCT116 cells assessed as accumulation at G2M phase after 24 hrs by propidium iodide staining based flow cytometry; format: functional
HCT-116 [13] = assay: Induction of cell cycle arrest in human HCT116 cells assessed as accumulation at G2M phase at 10 nM after 24 hrs by propidium iodide staining based flow cytometry relative to control; format: functional
HUVEC [14] = assay: Antiangiogenic activity in HUVEC assessed as inhibition of tube formation after 2 to 6 hrs by matrigel assay; format: functional, cell-based; conditions: Homo sapiens
HUVEC [15] = assay: Antiangiogenic activity in HUVEC assessed as disorganization of the vasculature network at 10 nM after 6 hrs by matrigel assay; format: functional, cell-based; conditions: Homo sapiens
HUVEC [16] = assay: Antiangiogenic activity in HUVEC assessed as disorganization of the vasculature network at 50 nM after 2 hrs by matrigel assay; format: functional, cell-based; conditions: Homo sapiens
[17] = Lipophilicity, log P of the compound after 24 hrs by HPLC analysis; format: physicochemical
[18] = Aqueous solubility of the compound in phosphate buffer at pH 7.4 after 4 hrs by HPLC-UV analysis; format: physicochemical
Cytochrome P450 [19] = assay: Drug metabolism in human liver microsomes assessed as cytochrome P450-mediated 3-(1-(2-methylquinolin-4-yl)vinyl)-9H-carbazole metabolite formation at 100 uM after 6 hrs in presence of NADPH generating system by HPLC-UV-MS analysis; format: ADME
[20] = Drug metabolism in rat liver microsomes assessed as cytochrome P450-mediated 3-(1-(2-methylquinolin-4-yl)vinyl)-9H-carbazole metabolite formation at 100 uM after 6 hrs in presence of NADPH generating system by HPLC-UV-MS analysis; format: ADME
Cytochrome P450 [21] = assay: Drug metabolism in human liver microsomes assessed as cytochrome P450-mediated N-demethylated metabolite formation at 100 uM after 6 hrs in presence of NADPH generating system by HPLC-UV-MS analysis; format: ADME
[22] = Drug metabolism in rat liver microsomes assessed as cytochrome P450-mediated N-demethylated metabolite formation at 100 uM after 6 hrs in presence of NADPH generating system by HPLC-UV-MS analysis; format: ADME
Cytochrome P450 [23] = assay: Drug metabolism in human liver microsomes assessed as cytochrome P450-mediated hydroxylated metabolite formation at 100 uM after 6 hrs in presence of NADPH generating system by HPLC-UV-MS analysis; format: ADME
[24] = Drug metabolism in rat liver microsomes assessed as cytochrome P450-mediated hydroxylated metabolite formation at 100 uM after 6 hrs in presence of NADPH generating system by HPLC-UV-MS analysis; format: ADME
[25] = Metabolic stability in human liver microsomes assessed as parent compound at 100 uM up to […] in presence of NADPH generating system by HPLC-MS/MS analysis; format: ADME, Microsome
[26] = Metabolic stability in rat liver microsomes assessed as parent compound at 100 uM up to […] in presence of NADPH generating system by HPLC-MS/MS analysis; format: ADME, Microsome
A549 [27] = assay: Potency index, ratio of CA-4 IC50 to compound IC50 for antiproliferative activity against human A549 cells; format: functional
K-562R [28] = assay: Potency index, ratio of iso-CA-4 IC50 to compound IC50 for antiproliferative activity against human K562R cells; format: functional
K-562R [29] = assay: Potency index, ratio of CA-4 IC50 to compound IC50 for antiproliferative activity against human K562R cells; format: functional
Cytochrome P450 [30] = assay: Drug metabolism in human liver microsomes assessed as cytochrome P450-mediated 6-(1-(3-hydroxy-4-methoxyphenyl)vinyl)-2,3,4-trimethoxyphenol metabolite formation at 100 uM after 6 hrs in presence of NADPH generating system by HPLC-UV-MS analysis; format: ADME
[31] = Drug metabolism in rat liver microsomes assessed as cytochrome P450-mediated 6-(1-(3-hydroxy-4-methoxyphenyl)vinyl)-2,3,4-trimethoxyphenol metabolite formation at 100 uM after 6 hrs in presence of NADPH generating system by HPLC-UV-MS analysis; format: ADME
Cytochrome P450 [32] = assay: Drug metabolism in human liver microsomes assessed as cytochrome P450-mediated O-demethylated metabolite formation at 100 uM after 6 hrs in presence of NADPH generating system by HPLC-UV-MS analysis; format: ADME
[33] = Drug metabolism in rat liver microsomes assessed as cytochrome P450-mediated O-demethylated metabolite formation at 100 uM after 6 hrs in presence of NADPH generating system by HPLC-UV-MS analysis; format: ADME
Cytochrome P450 [34] = assay: Drug level in human liver microsomes treated with 9-Methyl-3-(1-(2-methylquinolin-4-yl)vinyl)-9H-carbazole assessed as CYP450-mediated compound metabolism at 100 uM after 6 hrs in presence of NADPH generating system by HPLC-UV-MS analysis; format: ADME
[35] = Drug level in rat liver microsomes treated with 9-Methyl-3-(1-(2-methylquinolin-4-yl)vinyl)-9H-carbazole assessed as CYP450-mediated compound metabolism at 100 uM after 6 hrs in presence of NADPH generating system by HPLC-UV-MS analysis; format: ADME

Drug metabolism (Cytochrome P450 [1]): Metabolite_Detected
Drug metabolism [2]: Metabolite_Detected
SMILES: C=C(C1=CC(=O)C(OC)=CC1=O)c1cc(OC)c(OC)c(OC)c1

Drug metabolism (Cytochrome P450 [1]): Metabolite_Detected
Drug metabolism [2]: Metabolite_Detected
SMILES: C=C(c1ccc(OC)c(O)c1)c1cc(OC)c(OC)c(OC)c1O

SMILES: COc1ccc(/C=C\c2cc(OC)c(OC)c(OC)c2)cc1O [COMBRETASTATIN A4]
IC50 [3]: 2200 nM
IC50 (U-87 MG): 4 nM
Drug metabolism (Cytochrome P450 [4]): Metabolite_Detected
Drug metabolism [5]: Metabolite_Detected
Drug metabolism (Cytochrome P450 [6]): Metabolite_Detected
Drug metabolism [7]: Metabolite_Detected
IC50 (HCT-116 [8]): 2.2 nM
IC50 (A549 [9]): 200 nM
IC50 (K562): 5 nM
IC50 (HUVEC [10]): 1.7 nM
IC50 (HT-29): > 8000 nM

IC50 [3]: 2000 nM
IC50 (U-87 MG): 1.9 nM
IC50 (K-562R [11]): 0.9 nM
logP at 24 h [17]: 5.29
solubility at 4 h [18]: 0.42 µg/mL (≈ 1.21 µM)
Drug metabolism (Cytochrome P450 [19]): Metabolite_Detected
Drug metabolism [20]: Metabolite_Detected
Drug metabolism (Cytochrome P450 [21]): Metabolite_Detected
Drug metabolism [22]: Metabolite_Detected
Drug metabolism (Cytochrome P450 [23]): Metabolite_Detected
Drug metabolism [24]: Metabolite_Detected
Stability [25]: Stable
Stability [26]: Stable
IC50 (HCT-116 [8]): 2 nM
IC50 (A549 [9]): 3 nM
IC50 (K562): 2 nM
IC50 (HT-29): 3 nM
SMILES: C=C(c1ccc2c(c1)c1ccccc1n2C)c1cc(C)nc2ccccc12
Activity (HCT-116 [12]): Dose-dependent effect
Activity (HCT-116 [13]): >90%
Activity (HUVEC [14]): Dose-dependent effect
Activity (HUVEC [15]): Active
Activity (HUVEC [16]): Active
Ratio IC50 (A549 [27]): 67
Ratio IC50 (K-562R [28]): 3
Ratio IC50 (K-562R [29]): 27
IC50 (HUVEC [10]): 0.81 nM

IC50 [3]: 2100 nM
IC50 (HCT-116 [8]): 40 nM
SMILES: C=C(c1ccc2c(c1)c1ccccc1n2C)c1nc(C)nc2ccccc12

IC50 [3]: 6200 nM
IC50 (HCT-116 [8]): 19 nM
SMILES: C=C(c1ccnc(C)c1)c1ccc2c(c1)c1ccccc1n2C

IC50 [3]: 3000 nM
IC50 (HCT-116 [8]): 15 nM
SMILES: C=C(c1cc(OC)c(OC)c(OC)c1)c1ccc2c(c1)c1ccccc1n2C

Drug metabolism (Cytochrome P450 [1]): Metabolite_Detected
Drug metabolism [2]: Metabolite_Detected
SMILES: C=C(c1ccc(OC)c(O)c1)c1cc(OC)c(O)c(OC)c1

logP at 24 h [17]: 2.37
solubility at 4 h [18]: 3.11 µg/mL (≈ 10.1 µM)
Drug metabolism (Cytochrome P450 [21]): Metabolite_Detected
Drug metabolism [22]: Metabolite_Detected
Drug metabolism (Cytochrome P450 [23]): Metabolite_Detected
Drug metabolism [24]: Metabolite_Detected
SMILES: C=C(c1ccc2c(ccn2C)c1)c1cc(C#N)nc2ccccc12

SMILES: C=C(c1ccc(OC)c(O)c1)c1cc(OC)c(OC)c(OC)c1
IC50 [3]: 2100 nM
IC50 (U-87 MG): 8.2 nM
IC50 (K-562R [11]): 3 nM
logP ([17]; 24 h): 3.25
solubility at 4 h [18]: 11.6 µg/mL (≈ 36.7 µM)
Drug metabolism (Cytochrome P450 [30]): Metabolite_Detected
Drug metabolism [31]: Metabolite_Detected
Drug metabolism (Cytochrome P450 [21]): Metabolite_Detected
Drug metabolism [22]: Metabolite_Detected
Drug metabolism (Cytochrome P450 [23]): Metabolite_Detected
Drug metabolism [24]: Metabolite_Detected
Drug metabolism (Cytochrome P450 [32]): Metabolite_Detected
Drug metabolism [33]: Metabolite_Detected
IC50 (A549 [9]): 8 nM
IC50 (K562): 2 nM
IC50 (HUVEC [10]): 2 nM
IC50 (HT-29): 265 nM

IC50 [3]: 3600 nM
IC50 (HCT-116 [8]): 12 nM
SMILES: C=C(c1ccc2c(c1)c1ccccc1n2C)c1cc(C#N)nc2ccccc12

Drug metabolism (Cytochrome P450 [34]): Metabolite_Detected
Drug metabolism [35]: Metabolite_Detected
SMILES: C=C(c1ccc2[nH]c3ccccc3c2c1)c1cc(C)nc2ccccc12

IC50 [3]: 3700 nM
IC50 (U-87 MG): 31.6 nM
IC50 (K-562R [11]): 0.84 nM
logP at 24 h [17]: 5.2
solubility at 4 h [18]: 0.54 µg/mL (≈ 2.06 µM)
Drug metabolism (Cytochrome P450 [21]): Metabolite_Detected
Drug metabolism [22]: Metabolite_Detected
Drug metabolism (Cytochrome P450 [23]): Metabolite_Detected
Drug metabolism [24]: Metabolite_Detected
IC50 (HCT-116 [8]): 3.8 nM
IC50 (A549 [9]): 61.9 nM
IC50 (K562): 1.82 nM
SMILES: C=C(c1cc(C)nc(C)c1)c1ccc2c(ccn2C)c1
IC50 (HUVEC [10]): 0.9 nM

IC50 (HCT-116 [8]): 300 nM
SMILES: C=C(c1ccc2c(c1)c1cc(F)ccc1n2C)c1cn(C)c(=O)n(C)c1=O

IC50 (HCT-116 [8]): 195 nM
SMILES: C=C(c1ccc2c(c1)c1ccccc1n2C)c1cn(C)c(=O)n(C)c1=O
